Blank lines part the entries; values can stand above or below the molecule they belong to.
How the values were obtained:
[1] = target: T1, Dual specificity tyrosine-phosphorylation-regulated kinase 1B (Homo sapiens, UniProt Q9Y463); test: Selectivity interaction (KinomeScan (DiscoverX)) EUB0000733a DYRK1B; details: at 1 µM
[2] = target: Muscarinic acetylcholine receptor M3 (Homo sapiens) (UniProt P20309); test: Selectivity interaction (GPCR panel (PDSP screen)) EUB0000546a CHRM3; details: at 10 µM
[3] = target: T2, Gamma-aminobutyric acid receptor subunit alpha-1 (Homo sapiens) (UniProt P14867); test: Selectivity interaction (GPCR panel (PDSP screen)) EUB0000546a GABRA1; details: at 10 µM
T2 sequence (whole entry): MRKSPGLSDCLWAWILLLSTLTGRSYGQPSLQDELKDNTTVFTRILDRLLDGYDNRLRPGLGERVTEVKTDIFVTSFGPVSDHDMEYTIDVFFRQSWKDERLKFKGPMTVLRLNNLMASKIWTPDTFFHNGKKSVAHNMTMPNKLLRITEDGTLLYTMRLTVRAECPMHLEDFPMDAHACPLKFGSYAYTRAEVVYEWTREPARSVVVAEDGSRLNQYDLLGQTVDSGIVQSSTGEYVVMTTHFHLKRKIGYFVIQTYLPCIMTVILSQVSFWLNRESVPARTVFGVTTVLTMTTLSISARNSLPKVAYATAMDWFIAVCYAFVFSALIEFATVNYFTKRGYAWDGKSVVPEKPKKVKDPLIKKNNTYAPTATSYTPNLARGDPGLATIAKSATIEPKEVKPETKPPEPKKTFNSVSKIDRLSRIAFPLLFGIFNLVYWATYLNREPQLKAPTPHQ

[4] = target: Tyrosine-protein kinase ABL2 (Homo sapiens) (UniProt P42684); test: Selectivity interaction (KiNativ profiling (A375 live cells treatment assays)) EUB0000238b ABL2; details: at 1 µM
[5] = target: Tyrosine-protein kinase ABL1 (Homo sapiens, UniProt P00519); test: Selectivity interaction (KiNativ profiling (A375 live cells treatment assays)) EUB0000238b ABL1; details: at 1 µM
[6] = target: Ribosomal protein S6 kinase beta-1 (Homo sapiens) (UniProt P23443); test: Selectivity interaction (KinomeScan (DiscoverX)) EUB0000274bCl RPS6KB1; details: at 1 µM
[7] = system: Receptor-type tyrosine-protein kinase FLT3 (Homo sapiens), P36888 [K663Q]; test: Selectivity interaction (KinomeScan (DiscoverX)) EUB0000274bCl FLT3; details: at 1 µM
[8] = target: Calcium/calmodulin-dependent protein kinase kinase 1 (Homo sapiens) (UniProt Q8N5S9); test: Selectivity interaction (KinomeScan (DiscoverX)) EUB0000167b CAMKK1; details: at 1 µM
[9] = target: T1, Dual specificity tyrosine-phosphorylation-regulated kinase 1B; test: Selectivity interaction (KinomeScan (DiscoverX)) EUB0000313b DYRK1B; details: at 1 µM
[10] = target: Dual specificity tyrosine-phosphorylation-regulated kinase 1A (Homo sapiens, UniProt Q13627); test: Selectivity interaction (KinomeScan (DiscoverX)) EUB0000313b DYRK1A; details: at 1 µM

T1 sequence (Q9Y463 whole entry, looked up): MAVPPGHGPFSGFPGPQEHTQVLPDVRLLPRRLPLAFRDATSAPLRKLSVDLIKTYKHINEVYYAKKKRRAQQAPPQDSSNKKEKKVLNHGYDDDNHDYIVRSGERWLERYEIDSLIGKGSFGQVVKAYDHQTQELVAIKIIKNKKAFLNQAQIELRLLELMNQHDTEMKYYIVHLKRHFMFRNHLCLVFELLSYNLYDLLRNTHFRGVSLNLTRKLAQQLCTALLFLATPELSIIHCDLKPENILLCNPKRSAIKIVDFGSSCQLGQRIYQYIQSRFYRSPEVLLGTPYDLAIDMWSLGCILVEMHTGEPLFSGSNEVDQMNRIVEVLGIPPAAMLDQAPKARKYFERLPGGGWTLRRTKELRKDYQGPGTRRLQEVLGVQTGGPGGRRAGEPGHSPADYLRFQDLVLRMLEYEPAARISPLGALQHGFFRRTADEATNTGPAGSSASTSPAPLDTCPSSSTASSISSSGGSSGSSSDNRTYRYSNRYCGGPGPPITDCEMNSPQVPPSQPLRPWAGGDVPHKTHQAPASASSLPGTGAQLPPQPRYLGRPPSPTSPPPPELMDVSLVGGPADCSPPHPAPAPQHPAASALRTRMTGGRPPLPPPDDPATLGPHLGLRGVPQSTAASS
Ribosomal protein S6 kinase beta-1 (Homo sapiens), sequence (P23443 whole entry, looked up): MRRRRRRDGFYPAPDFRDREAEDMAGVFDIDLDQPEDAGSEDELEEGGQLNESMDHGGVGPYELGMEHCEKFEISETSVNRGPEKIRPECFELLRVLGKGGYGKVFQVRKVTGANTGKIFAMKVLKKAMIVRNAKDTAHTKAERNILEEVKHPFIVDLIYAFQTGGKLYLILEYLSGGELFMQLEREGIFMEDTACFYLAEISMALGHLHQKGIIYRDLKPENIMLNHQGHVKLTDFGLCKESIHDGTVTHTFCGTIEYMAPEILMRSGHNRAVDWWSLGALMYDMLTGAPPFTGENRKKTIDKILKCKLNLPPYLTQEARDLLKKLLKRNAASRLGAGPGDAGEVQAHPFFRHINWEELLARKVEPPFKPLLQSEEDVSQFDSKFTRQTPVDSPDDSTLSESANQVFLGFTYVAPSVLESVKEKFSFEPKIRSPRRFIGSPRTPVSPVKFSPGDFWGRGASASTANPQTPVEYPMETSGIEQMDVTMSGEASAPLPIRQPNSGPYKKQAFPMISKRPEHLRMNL
Tyrosine-protein kinase ABL1, sequence (P00519 whole entry): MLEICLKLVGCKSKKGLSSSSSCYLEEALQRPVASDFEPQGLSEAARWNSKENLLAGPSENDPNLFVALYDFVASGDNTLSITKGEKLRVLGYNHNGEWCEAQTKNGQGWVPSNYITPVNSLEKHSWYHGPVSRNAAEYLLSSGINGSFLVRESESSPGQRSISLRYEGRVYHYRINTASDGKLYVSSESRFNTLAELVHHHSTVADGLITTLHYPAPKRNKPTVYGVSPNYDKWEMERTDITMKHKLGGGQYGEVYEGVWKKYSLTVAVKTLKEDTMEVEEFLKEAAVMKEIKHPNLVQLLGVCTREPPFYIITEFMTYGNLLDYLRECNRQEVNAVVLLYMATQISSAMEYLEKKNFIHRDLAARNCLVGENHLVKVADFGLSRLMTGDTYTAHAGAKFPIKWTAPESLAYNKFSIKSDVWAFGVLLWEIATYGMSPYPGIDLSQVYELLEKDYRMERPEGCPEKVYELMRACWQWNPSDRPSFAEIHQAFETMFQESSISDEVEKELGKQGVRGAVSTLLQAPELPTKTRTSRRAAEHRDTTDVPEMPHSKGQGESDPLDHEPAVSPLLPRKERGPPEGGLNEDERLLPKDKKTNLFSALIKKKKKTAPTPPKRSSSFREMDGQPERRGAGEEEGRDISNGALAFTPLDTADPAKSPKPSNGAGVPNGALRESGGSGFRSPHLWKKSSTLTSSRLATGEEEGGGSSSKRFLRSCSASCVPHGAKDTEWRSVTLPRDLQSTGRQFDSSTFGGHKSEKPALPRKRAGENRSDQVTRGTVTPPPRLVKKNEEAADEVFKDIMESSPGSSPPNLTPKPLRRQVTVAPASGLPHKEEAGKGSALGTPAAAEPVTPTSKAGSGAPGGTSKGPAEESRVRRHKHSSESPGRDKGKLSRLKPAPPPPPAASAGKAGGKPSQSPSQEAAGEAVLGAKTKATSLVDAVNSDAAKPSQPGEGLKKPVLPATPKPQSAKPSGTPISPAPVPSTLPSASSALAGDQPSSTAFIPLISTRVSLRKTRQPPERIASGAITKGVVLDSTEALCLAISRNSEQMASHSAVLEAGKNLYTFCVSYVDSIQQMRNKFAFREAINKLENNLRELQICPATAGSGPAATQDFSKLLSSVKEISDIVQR
Muscarinic acetylcholine receptor M3 (Homo sapiens), sequence (P20309 whole entry, looked up): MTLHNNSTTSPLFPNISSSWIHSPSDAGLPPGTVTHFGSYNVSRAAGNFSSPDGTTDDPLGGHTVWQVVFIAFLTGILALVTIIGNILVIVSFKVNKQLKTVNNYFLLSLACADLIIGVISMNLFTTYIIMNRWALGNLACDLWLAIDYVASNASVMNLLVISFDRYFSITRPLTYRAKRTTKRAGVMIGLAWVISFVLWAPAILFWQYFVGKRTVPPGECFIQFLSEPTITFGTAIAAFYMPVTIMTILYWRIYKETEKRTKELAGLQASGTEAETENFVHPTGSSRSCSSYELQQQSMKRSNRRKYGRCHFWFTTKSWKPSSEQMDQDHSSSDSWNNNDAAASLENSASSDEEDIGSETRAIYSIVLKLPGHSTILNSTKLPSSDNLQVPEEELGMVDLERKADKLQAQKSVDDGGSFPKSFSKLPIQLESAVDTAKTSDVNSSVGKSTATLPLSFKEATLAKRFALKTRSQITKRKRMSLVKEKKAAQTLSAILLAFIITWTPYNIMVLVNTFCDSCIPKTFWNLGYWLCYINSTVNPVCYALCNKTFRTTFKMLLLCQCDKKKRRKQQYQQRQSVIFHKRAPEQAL
Tyrosine-protein kinase ABL2 (Homo sapiens), sequence (P42684 whole entry): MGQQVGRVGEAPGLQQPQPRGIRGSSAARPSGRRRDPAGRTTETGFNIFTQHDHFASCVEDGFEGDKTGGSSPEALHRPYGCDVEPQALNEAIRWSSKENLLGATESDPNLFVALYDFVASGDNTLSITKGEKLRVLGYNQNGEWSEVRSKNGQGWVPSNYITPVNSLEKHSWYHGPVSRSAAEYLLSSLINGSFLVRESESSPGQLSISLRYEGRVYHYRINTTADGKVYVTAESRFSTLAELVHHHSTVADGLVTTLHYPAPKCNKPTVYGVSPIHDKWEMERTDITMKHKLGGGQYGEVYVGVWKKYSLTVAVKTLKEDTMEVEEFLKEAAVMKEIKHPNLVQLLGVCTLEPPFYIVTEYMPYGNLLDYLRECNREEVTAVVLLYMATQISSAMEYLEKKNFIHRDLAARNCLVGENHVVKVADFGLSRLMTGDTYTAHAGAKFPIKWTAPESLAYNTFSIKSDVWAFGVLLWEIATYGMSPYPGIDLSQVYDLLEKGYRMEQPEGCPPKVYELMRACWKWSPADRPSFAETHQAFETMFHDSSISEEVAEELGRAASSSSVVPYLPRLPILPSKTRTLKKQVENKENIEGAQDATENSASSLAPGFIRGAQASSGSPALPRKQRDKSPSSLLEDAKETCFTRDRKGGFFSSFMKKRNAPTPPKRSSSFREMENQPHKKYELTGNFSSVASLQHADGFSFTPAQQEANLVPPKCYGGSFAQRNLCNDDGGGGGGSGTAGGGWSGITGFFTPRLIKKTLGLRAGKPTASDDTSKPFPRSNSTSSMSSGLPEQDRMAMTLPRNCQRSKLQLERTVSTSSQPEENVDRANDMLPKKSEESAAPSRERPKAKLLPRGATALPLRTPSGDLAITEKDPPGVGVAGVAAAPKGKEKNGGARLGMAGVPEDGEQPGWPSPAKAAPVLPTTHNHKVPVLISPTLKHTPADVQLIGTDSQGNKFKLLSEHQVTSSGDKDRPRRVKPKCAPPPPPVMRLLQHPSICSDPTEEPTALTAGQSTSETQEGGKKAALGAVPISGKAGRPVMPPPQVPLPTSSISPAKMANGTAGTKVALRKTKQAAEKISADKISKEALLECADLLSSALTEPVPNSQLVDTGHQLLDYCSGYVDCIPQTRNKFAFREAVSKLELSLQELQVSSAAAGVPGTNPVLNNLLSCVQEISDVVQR
Calcium/calmodulin-dependent protein kinase kinase 1 (Homo sapiens), sequence (Q8N5S9 whole entry, looked up): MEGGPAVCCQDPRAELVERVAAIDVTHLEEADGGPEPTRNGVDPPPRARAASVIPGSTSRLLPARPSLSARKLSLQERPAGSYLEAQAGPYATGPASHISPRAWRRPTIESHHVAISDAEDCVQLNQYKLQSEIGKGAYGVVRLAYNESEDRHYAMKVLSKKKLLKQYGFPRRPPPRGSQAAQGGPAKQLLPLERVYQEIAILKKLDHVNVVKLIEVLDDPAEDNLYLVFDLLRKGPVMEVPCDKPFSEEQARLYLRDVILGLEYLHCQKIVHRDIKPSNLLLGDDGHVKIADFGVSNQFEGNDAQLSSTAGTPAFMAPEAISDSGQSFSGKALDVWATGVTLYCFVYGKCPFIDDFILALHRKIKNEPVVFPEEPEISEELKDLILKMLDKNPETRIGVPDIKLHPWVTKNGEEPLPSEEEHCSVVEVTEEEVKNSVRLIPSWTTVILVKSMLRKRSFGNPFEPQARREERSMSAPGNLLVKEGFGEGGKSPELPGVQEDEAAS

% of control [1]: 53%
SMILES: FC(F)(F)c1ccc2c(c1)nc(-c1cccnc1)n2C1CC1

% of inhibition [2]: 39%
% of inhibition [3]: 28%
SMILES: C[C@H](c1ccc(F)cc1)N(Cc1ccc(Cl)c(C(=O)O)c1)C(=O)c1cnc2ccccc2c1

% of inhibition [4]: 49%
% of inhibition [5]: 49%
SMILES: CNc1cc(Oc2cc(C(=O)Nc3cc(N4CCN(C)CC4)cc(C(F)(F)F)c3)ccc2C)ncn1

% of control [6]: 34%
% of control [7]: 30%
SMILES: O=C(O)c1cc(-c2ccc(C3CCNCC3)cc2)c2ccc(-c3ccc(C(F)(F)F)cc3)cc2c1

% of control [8]: 12%
SMILES: Cc1cccc(-c2cnc3occ(-c4ccc(C(=O)O)c(C5CCCC5)c4)c3c2)c1

% of control [9]: 44%
% of control [10]: 48%
SMILES: CC(C)(O)c1cncc(-c2nc3ccc(F)cc3n2C2CC2)c1

Reference: ChEMBL document CHEMBL5212743, “Selectivity Literature for EUbOPEN Chemogenomics Library wave 3” (2023)
